How the values were obtained:
ECHCG (Barnyardgrass) [1] = experiment: Postemergence herbicidal evaluation; assay type: in vivo, Echinochloa crus-galli, (L.) Beau; settings: rated about 2-3 weeks after treatment, scale 0-9, averaged
Method: (§1) Seedling plants are grown in jiffy flats for about two weeks. The test compounds are dispersed in 80/20 (v/v) acetone/water mixtures containing 1.0% SUN-IT® II, a methylated seed oil, in sufficient quantities to provide the equivalent of about 0.006 kg/ha to 0.800 kg/ha of active compound when applied to the plants through a spray nozzle operating at 40 psi for a predetermined time. After spraying, the plants are placed on greenhouse benches and are cared for in accordance with conventional greenhouse procedures. Approximately two—three weeks after treatment, the seedling plants are examined and rated according to the rating system set forth below. Where more than one test is involved for a given compound, the data are averaged.

[2] = test system: IPOHE (Morningglory, Ivyleaf); experiment: Preemergence herbicidal evaluation; assay type: in vivo, Ipomoea hederacea, (L) Jacq.; settings: rated about 2-4 weeks after treatment, scale 0-9
Description: (§2) In these tests, seeds of a variety of monocotyledonous and dicotyledonous plants are separately mixed with potting soil and planted on top of approximately one inch of soil in separate pint cups. After planting, the cups are sprayed with the selected aqueous acetone solution containing test compound in sufficient quantity to provide the equivalent of about 0.0125 to 0.800 kg per hectare of test compound per cup. The treated cups are then placed on greenhouse benches, watered and cared for in accordance with conventional greenhouse procedures. Approximately two—four weeks after treatment, the tests are terminated and each cup is examined and rated according to the rating system provided in Example 6.

PANDI (Panicum, Fall) [3] = experiment: Preemergence herbicidal evaluation; assay type: in vivo, Panicum dichotomiflorum, Michx.; settings: rated about 2-4 weeks after treatment, scale 0-9
Description: as §2

ABUTH (Velvetleaf) [4] = experiment: Postemergence herbicidal evaluation; assay type: in vivo, Abutilon theophrasti, Medic.; settings: rated about 2-3 weeks after treatment, scale 0-9, averaged
Method: as §1

SETVI (Foxtail, Green) [5] = experiment: Preemergence herbicidal evaluation; assay type: in vivo, Setaria viridis, (L.) Beau; settings: rated about 2-4 weeks after treatment, scale 0-9
Description: as §2

AMBEL (Ragweed, Common) [6] = experiment: Postemergence herbicidal evaluation; assay type: in vivo, Ambrosia artemisifolia, L.; settings: rated about 2-3 weeks after treatment, scale 0-9, averaged
Method: as §1

[7] = test system: IPOHE (Morningglory, Ivyleaf); experiment: Postemergence herbicidal evaluation; assay type: in vivo, Ipomoea hederacea, (L) Jacq.; settings: rated about 2-3 weeks after treatment, scale 0-9, averaged
Method: as §1

AMBEL (Ragweed, Common) [8] = experiment: Preemergence herbicidal evaluation; assay type: in vivo, Ambrosia artemisifolia, L.; settings: rated about 2-4 weeks after treatment, scale 0-9
Description: as §2

ZEAMX (Corn, Field) [9] = experiment: Preemergence herbicidal evaluation (crop); assay type: in vivo, Zea mays, L.
Description: as §2

ABUTH (Velvetleaf) [10] = experiment: Preemergence herbicidal evaluation; assay type: in vivo, Abutilon theophrasti, Medic.; settings: rated about 2-4 weeks after treatment, scale 0-9
Description: as §2

ECHCG (Barnyardgrass) [11] = experiment: Preemergence herbicidal evaluation; assay type: in vivo, Echinochloa crus-galli, (L.) Beau; settings: rated about 2-4 weeks after treatment, scale 0-9
Description: as §2

SETVI (Foxtail, Green) [12] = experiment: Postemergence herbicidal evaluation; assay type: in vivo, Setaria viridis, (L.) Beau; settings: rated about 2-3 weeks after treatment, scale 0-9, averaged
Method: as §1

PANDI (Panicum, Fall) [13] = experiment: Postemergence herbicidal evaluation; assay type: in vivo, Panicum dichotomiflorum, Michx.; settings: rated about 2-3 weeks after treatment, scale 0-9, averaged
Method: as §1

ZEAMX (Corn, Field) [14] = experiment: Postemergence herbicidal evaluation (crop); assay type: in vivo, Zea mays, L.; settings: rated about 2-3 weeks after treatment, scale 0-9, averaged
Method: as §1

[15] = preemergence, 0.050 kg/ha, rated about 2-4 weeks after treatment, scale 0-9
[16] = preemergence, 0.100 kg/ha, rated about 2-4 weeks after treatment, scale 0-9

| SMILES | Herbicide rating ECHCG (ECHCG (Barnyardgrass) [1]; 0.050 kg/ha) | Herbicide rating ECHCG (ECHCG (Barnyardgrass) [1]; 0.100 kg/ha) | Herbicide rating IPOHE ([2]; 0.050 kg/ha) | Herbicide rating IPOHE ([2]; 0.100 kg/ha) | Herbicide rating PANDI (PANDI (Panicum, Fall) [3]; 0.050 kg/ha) | Herbicide rating PANDI (PANDI (Panicum, Fall) [3]; 0.100 kg/ha) | Herbicide rating ABUTH (ABUTH (Velvetleaf) [4]; 0.050 kg/ha) | Herbicide rating ABUTH (ABUTH (Velvetleaf) [4]; 0.100 kg/ha) | Herbicide rating SETVI (SETVI (Foxtail, Green) [5]; 0.050 kg/ha) | Herbicide rating SETVI (SETVI (Foxtail, Green) [5]; 0.100 kg/ha) | Herbicide rating AMBEL (AMBEL (Ragweed, Common) [6]; 0.050 kg/ha) | Herbicide rating AMBEL (AMBEL (Ragweed, Common) [6]; 0.100 kg/ha) | Herbicide rating AMBEL (AMBEL (Ragweed, Common) [8]; 0.050 kg/ha) | Herbicide rating AMBEL (AMBEL (Ragweed, Common) [8]; 0.100 kg/ha) | Herbicide rating ABUTH (ABUTH (Velvetleaf) [10]; 0.050 kg/ha) | Herbicide rating ABUTH (ABUTH (Velvetleaf) [10]; 0.100 kg/ha) | Herbicide rating ECHCG (ECHCG (Barnyardgrass) [11]; 0.050 kg/ha) | Herbicide rating ECHCG (ECHCG (Barnyardgrass) [11]; 0.100 kg/ha) | Herbicide rating SETVI (SETVI (Foxtail, Green) [12]; 0.050 kg/ha) | Herbicide rating SETVI (SETVI (Foxtail, Green) [12]; 0.100 kg/ha) | further results |
| --- | --- | --- | --- | --- | --- | --- | --- | --- | --- | --- | --- | --- | --- | --- | --- | --- | --- | --- | --- | --- | --- |
| CCn1ncc(C(=S)c2cc(C)c3c(c2C)C(C)(C)CCS3(=O)=O)c1O [Example 2] | 5.0 | 9.0 | 0.0 | 0.0 | 5.0 | 7.0 | 9.0 | 9.0 | 4.0 | 5.0 | 6.0 | 9.0 | 2.0 | 3.0 | 3.0 | 9.0 | 0.0 | 3.0 | 9.0 | 9.0 | Herbicide rating IPOHE ([7]; 0.050 kg/ha): 2.0; Herbicide rating IPOHE ([7]; 0.100 kg/ha): 4.0; Herbicide rating ZEAMX (crop injury, corn) (ZEAMX (Corn, Field) [9]; in vivo): 0.0; Herbicide rating PANDI (PANDI (Panicum, Fall) [13]; 0.050 kg/ha): 5.0; Herbicide rating PANDI (PANDI (Panicum, Fall) [13]; 0.100 kg/ha): 4.0 |
| CCn1ncc(C(=S)c2ccc3c(c2C)/C(=N/OC)CCS3(=O)=O)c1O [Example 1, 6-[(1-Ethyl-5-hydroxypyrazol-4-yl)thicarbonyl]-5-methylthiochroman-4-one (E) -O-Methyloxime, 1,1-Dioxide] | 8.0 | 7.8 | 2.5 | 6.0 | 8.0 | 8.5 | 7.6 | 8.0 | 6.6 | 8.4 | 8.2 | 8.4 | 8.5 | 8.8 | 7.3 | 9.0 | 5.8 | 8.3 | 8.5 | 9.0 | Herbicide rating IPOHE ([7]; 0.050 kg/ha): 2.0; Herbicide rating IPOHE ([7]; 0.100 kg/ha): 3.0; Herbicide rating ZEAMX (crop injury, corn) (ZEAMX (Corn, Field) [9]; [15]): 0.0; Herbicide rating ZEAMX (crop injury, corn) (ZEAMX (Corn, Field) [9]; [16]): 0.8; Herbicide rating ZEAMX (crop injury, corn) (ZEAMX (Corn, Field) [14]; 0.050 kg/ha): 1.2; Herbicide rating ZEAMX (crop injury, corn) (ZEAMX (Corn, Field) [14]; 0.100 kg/ha): 3.0; Herbicide rating PANDI (PANDI (Panicum, Fall) [13]; 0.050 kg/ha): 6.3; Herbicide rating PANDI (PANDI (Panicum, Fall) [13]; 0.100 kg/ha): 6.5 |
| CCCS(=O)(=O)Oc1c(C(=S)c2ccc3c(c2C)/C(=N/OC)CCS3(=O)=O)cnn1CC [Example 5] |  |  |  |  | 7.0 | 7.0 |  |  | 6.0 | 6.0 |  |  | 7.0 | 9.0 | 9.0 | 9.0 | 6.0 | 6.0 |  |  | Herbicide rating ZEAMX (crop injury, corn) (ZEAMX (Corn, Field) [9]; [15]): 0.0; Herbicide rating ZEAMX (crop injury, corn) (ZEAMX (Corn, Field) [9]; [16]): 0.0; Herbicide rating ZEAMX (crop injury, corn) (ZEAMX (Corn, Field) [14]; 0.050 kg/ha): 0.0; Herbicide rating ZEAMX (crop injury, corn) (ZEAMX (Corn, Field) [14]; 0.100 kg/ha): 3.0 |
| Cc1c(C(=S)c2cnn(C)c2O)ccc2c1C(C)(C)CS2(=O)=O [Example 3] | 7.0 | 9.0 | 2.0 | 2.0 | 6.5 | 8.0 | 9.0 | 8.0 | 5.0 | 7.0 | 9.0 | 8.0 | 5.5 | 7.0 | 8.0 | 9.0 | 7.0 | 8.5 | 8.0 | 8.0 | Herbicide rating ZEAMX (crop injury, corn) (ZEAMX (Corn, Field) [9]; in vivo): 0.0; Herbicide rating PANDI (PANDI (Panicum, Fall) [13]; 0.050 kg/ha): 7.0; Herbicide rating PANDI (PANDI (Panicum, Fall) [13]; 0.100 kg/ha): 8.0 |
| CCn1ncc(C(=S)c2ccc3c(c2C)C(C)(C)CS3(=O)=O)c1O [Example 4] | 8.0 | 8.0 | 1.0 | 1.0 | 2.0 | 7.0 | 4.0 | 7.0 | 3.0 | 3.0 | 8.0 | 8.0 | 2.0 | 9.0 | 6.0 | 9.0 | 2.0 | 9.0 | 4.0 | 7.0 | Herbicide rating IPOHE ([7]; 0.050 kg/ha): 4.0; Herbicide rating IPOHE ([7]; 0.100 kg/ha): 4.0; Herbicide rating ZEAMX (crop injury, corn) (ZEAMX (Corn, Field) [9]; in vivo): 0.0; Herbicide rating PANDI (PANDI (Panicum, Fall) [13]; 0.050 kg/ha): 3.0; Herbicide rating PANDI (PANDI (Panicum, Fall) [13]; 0.100 kg/ha): 9.0 |

From US6413913B1, “Thiono-thiochroman and -dihydrobenzothiophene compounds as herbicidal agents” (BASF Corporation, priority 1999, dated 2002)
